According to PubChem BioAssay AID1361 (SRMLSC, 2008):
Active and inactive are the calls of the source. No rule for the calls is given here.

Test: mitochondrial fusion inhibitors, confirmation, cell-based, chemical genetic, wild-type and mutant (AID 1361)
Conditions: Cell-based mitochondrial fusion phenotype, imaging
[1] = mutant cells, measured here: mutant cell line IC50

Cc1cc(C)cc(NC(=S)Nc2cccc3cnccc23)c1
IC50 (WT cells): > 25 µM (inactive)
IC50 [1]: > 25 µM

Cc1cccc(OCCCC(=O)Nc2ccc3c(c2)OCO3)c1
IC50 (WT cells): > 25 µM (inactive)
IC50 [1]: > 25 µM

Cc1ccc(NC(=O)CCC(=O)OCC(=O)c2ccc(Oc3ccc([N+](=O)[O-])cc3)cc2)cc1C
IC50 (WT cells): > 25 µM (inactive)
IC50 [1]: > 25 µM

Cc1cc(N2C(=O)C=CC2=O)c([N+](=O)[O-])cc1C
IC50 (WT cells): > 25 µM (inactive)
IC50 [1]: > 25 µM

Cc1cc(C)nc(Nc2ncc(O)n2-c2ccccc2)n1
IC50 (WT cells): > 25 µM (inactive)
IC50 [1]: > 25 µM

CCOc1ccc(-c2nc(N)ncc2Oc2ccccc2Br)c(O)c1
IC50 (WT cells): > 25 µM (inactive)
IC50 [1]: > 25 µM

O=C(CSCC(=O)OCn1nnc2ccccc2c1=O)Nc1ccc(Cl)cc1
IC50 (WT cells): > 25 µM (inactive)
IC50 [1]: > 25 µM

CCOC(=O)N1CCN(S(=O)(=O)c2ccc(C)c(C)c2)CC1
IC50 (WT cells): > 25 µM (inactive)
IC50 [1]: > 25 µM

CC(Oc1ccc2oc3ccccc3c2c1)C(=O)NC12CC3CC(CC(C3)C1)C2 (stereo not drawn)
IC50 (WT cells): 9.61 µM
IC50 [1]: 15.7 µM

Cc1ccc(C(C(=O)NC2CCCCC2)N(Cc2ccco2)C(=O)Cc2c[nH]c3ccccc23)o1 (stereo not drawn)
IC50 (WT cells): 21.2 µM
IC50 [1]: > 25 µM

C=CCSc1nnc(NC(=O)COc2ccc3ccccc3c2)s1
IC50 (WT cells): > 25 µM (inactive)
IC50 [1]: > 25 µM

COc1ccccc1NC(=O)COC(=O)c1ccc([N+](=O)[O-])s1
IC50 (WT cells): 6.09 µM
IC50 [1]: 19.4 µM

CC(C)c1ccc(OCC(O)Cn2cnc3ccccc32)cc1 (stereo not drawn)
IC50 (WT cells): > 25 µM (inactive)
IC50 [1]: > 25 µM

Cc1oc(-c2ccccc2)nc1CN1C(=O)CN=C(c2ccccc2)c2ccccc21
IC50 (WT cells): > 25 µM (inactive)
IC50 [1]: > 25 µM

CC(C)(C)c1cc(/C=N/O)cc(C(C)(C)C)c1O
IC50 (WT cells): > 25 µM (inactive)
IC50 [1]: > 25 µM

CCCCNC(=S)N(C)/N=C/c1ccc2c(c1)OCO2
IC50 (WT cells): 25 µM (inactive)
IC50 [1]: > 25 µM

CC1=CN2C(=N)/C(=C/c3ccc(Sc4ccc(C)cc4)o3)C(=O)N=C2S1
IC50 (WT cells): 7.68 µM
IC50 [1]: > 25 µM

CCn1ccnc1CN1CCc2c([nH]c3ccccc23)C1C1CCCCC1 (stereo not drawn)
IC50 (WT cells): 17.6 µM
IC50 [1]: > 25 µM

C=CCN1C(=O)C(CC(=O)Nc2ccc(OCCC)cc2)N(CCCN2CCN(Cc3ccccc3)CC2)C1=S (stereo not drawn)
IC50 (WT cells): > 25 µM (inactive)
IC50 [1]: > 25 µM

COc1cccc(NC(=S)N(CCc2c(C)[nH]c3ccccc23)Cc2ccco2)c1
IC50 (WT cells): 15.6 µM (inactive)
IC50 [1]: > 12.5 µM

COCCNC(=O)c1cccc(Nc2nc(-c3ccccc3)c3cc(Cl)ccc3n2)c1
IC50 (WT cells): 19.4 µM
IC50 [1]: > 25 µM

COCCN1C(=O)/C(=C/c2ccc(OCc3ccc(C(=O)O)cc3)c(OC)c2)SC1=Nc1ccccc1
IC50 (WT cells): > 25 µM (inactive)
IC50 [1]: > 25 µM

COc1ccccc1N(CC(O)COc1c(C)cc(C)cc1C)S(=O)(=O)c1ccccc1 (stereo not drawn)
IC50 (WT cells): 16.1 µM
IC50 [1]: > 25 µM

O=C1COc2ccc(NC(=O)N3CCN(c4ccc(F)cc4)CC3)cc2N1
IC50 (WT cells): > 25 µM (inactive)
IC50 [1]: > 25 µM

COc1cccc(-c2ccc(C#N)c(OC(=O)c3c(Cl)cccc3Cl)n2)c1
IC50 (WT cells): > 25 µM (inactive)
IC50 [1]: > 25 µM

O=[N+]([O-])c1ccc(Nc2c3ccccc3nc3ccccc23)cc1
IC50 (WT cells): 12.4 µM
IC50 [1]: 18.1 µM

Cn1c(=O)cc(OCCCC(=O)N2CCN(c3ccccc3)CC2)c2ccccc21
IC50 (WT cells): > 25 µM (inactive)
IC50 [1]: > 25 µM

CCCCCOc1ccc(CSCCNC(=S)Nc2ccccc2)cc1
IC50 (WT cells): 5.86 µM
IC50 [1]: > 25 µM

Oc1ccccc1-c1nc(/C=C/c2ccccc2)nn1-c1ccccc1
IC50 (WT cells): 11.2 µM
IC50 [1]: 15.4 µM

COc1cccc(-c2nc(OC(C)C)c3ccccc3n2)c1
IC50 (WT cells): > 25 µM (inactive)
IC50 [1]: > 25 µM

COCCn1c(SCc2cc(C(C)=O)ccc2OC)nc2cc(Cl)ccc2c1=O
IC50 (WT cells): 8.09 µM
IC50 [1]: > 25 µM

CCCCc1nc(NCCN)c(C#N)c2c1CSC(C)(C)C2
IC50 (WT cells): 21.7 µM
IC50 [1]: > 25 µM

C/C(CCN1CCc2nc(-c3ccccc3)c(-c3ccccc3)cc2C1)=N\OC[C@@H](C)[C@H](OCc1ccccc1)C(C)C
IC50 (WT cells): > 25 µM (inactive)
IC50 [1]: > 25 µM

Cc1ccc(-c2ncccc2OC(=O)C23CC4CC(CC(C4)C2)C3)cc1
IC50 (WT cells): 18.8 µM
IC50 [1]: > 25 µM

O=C(c1ccc(Cl)c(Cl)c1)c1cnc(Nc2ccccc2)s1
IC50 (WT cells): > 25 µM (inactive)
IC50 [1]: > 25 µM

CCC(C)n1c(SCc2ccccc2)nc2ccsc2c1=O (stereo not drawn)
IC50 (WT cells): 22.9 µM
IC50 [1]: > 25 µM

CC(C)(C)c1ccc(CN2N=C(/C=C/c3ccccc3)CCC2=O)cc1
IC50 (WT cells): 11.3 µM
IC50 [1]: > 25 µM

COc1ccc(OC)c(NC(=O)COC(=O)Cc2ccc(Br)cc2)c1
IC50 (WT cells): > 25 µM (inactive)
IC50 [1]: > 25 µM

CCCCCOC(=O)c1ccc(NC(=O)c2ccco2)cc1
IC50 (WT cells): 12.4 µM (inactive)
IC50 [1]: 10.5 µM

N#CCC(=O)N/N=C/c1cc(-c2ccccc2)n(-c2ccc(Cl)cc2)c1-c1ccccc1
IC50 (WT cells): 4.18 µM
IC50 [1]: > 25 µM

Cc1ccccc1N1CCN(c2ncnc3scc(-c4cccs4)c23)CC1
IC50 (WT cells): 9.75 µM
IC50 [1]: > 12.5 µM

CCC(C)c1ccc(NC(=S)Nc2ccc(OC)c(OC)c2)cc1 (stereo not drawn)
IC50 (WT cells): > 25 µM (inactive)
IC50 [1]: > 25 µM

N#Cc1c(NC(=S)NC(=O)C2CCCC2)sc2c1CCCCC2
IC50 (WT cells): 10.5 µM
IC50 [1]: > 25 µM

CCOC(=O)c1c(-c2ccc(OC)cc2)csc1/N=C/C1=C(O)CCCC1=O
IC50 (WT cells): > 25 µM (inactive)
IC50 [1]: > 25 µM

OC(CNCc1ccc(Cl)cc1)(c1ccccc1)c1ccc(F)cc1 (stereo not drawn)
IC50 (WT cells): > 25 µM (inactive)
IC50 [1]: > 25 µM

COc1cc(CNCCO)cc(Br)c1OCc1ccccc1Cl
IC50 (WT cells): > 25 µM (inactive)
IC50 [1]: 23.8 µM

CCOC(=O)c1c(NC(=O)C(C)N2CCN(C(=O)c3ccco3)CC2)sc2c1CCCC2 (stereo not drawn)
IC50 (WT cells): 10.9 µM
IC50 [1]: > 25 µM

CCOC(=O)N1CCN(CC(O)COC2CC(C)CCC2C(C)C)CC1 (stereo not drawn)
IC50 (WT cells): > 25 µM (inactive)
IC50 [1]: > 25 µM

COc1ccc(NC(=O)c2csc(Cc3ccc(Cl)cc3)n2)cc1
IC50 (WT cells): 16 µM
IC50 [1]: 24.4 µM

CC(C)(C)N=C1NN=C(c2cc3ccccc3o2)CS1
IC50 [1]: > 25 µM

CC1(C)CC(=O)C(C=Nc2ccc3[nH]ncc3c2)=C(O)C1
IC50 (WT cells): > 25 µM (inactive)
IC50 [1]: > 25 µM

COc1ccccc1Cn1c(/C=C/c2ccccc2)nc2ccccc21
IC50 (WT cells): 9.02 µM (inactive)
IC50 [1]: 8.43 µM

O=C(Nc1nnc(C2CC2)o1)c1ccc(S(=O)(=O)N2CCCc3ccccc32)cc1
IC50 (WT cells): 13.5 µM
IC50 [1]: 20.8 µM

COc1ccc(/C=C/c2nc3cc(-c4ccccc4)ccc3o2)cc1O
IC50 (WT cells): 11.6 µM
IC50 [1]: > 25 µM

CCn1c(C(=O)N2CCc3ccccc3C2)cc2oc3ccccc3c21
IC50 (WT cells): 8.84 µM
IC50 [1]: > 25 µM

COc1ccc(NC(=O)N2c3ccccc3CC2C)cc1OC (stereo not drawn)
IC50 (WT cells): > 25 µM (inactive)
IC50 [1]: > 25 µM

Cc1ccc2c(CSc3nnc(C4CC4)n3N)cc(=O)oc2c1C
IC50 (WT cells): > 25 µM (inactive)
IC50 [1]: > 25 µM

O=[N+]([O-])c1ccc(/C=N/Nc2nc(N3CCCCCC3)nc(N3CCCCCC3)n2)o1
IC50 (WT cells): 8.58 µM
IC50 [1]: > 25 µM

COc1cc(/C=N/NC(=O)CCc2ccccc2)ccc1O
IC50 (WT cells): > 25 µM (inactive)
IC50 [1]: > 25 µM

CCOC(=O)c1cnc(-c2ccccc2)nc1-c1ccccc1
IC50 (WT cells): > 25 µM (inactive)
IC50 [1]: > 25 µM

CC(Oc1ccc(Cl)cc1Cl)C(=O)NCCCCc1ccccc1 (stereo not drawn)
IC50 (WT cells): > 25 µM (inactive)
IC50 [1]: > 25 µM

COc1ccccc1CNc1nc2nc(C)c(C)c(=O)n2[nH]1
IC50 (WT cells): > 25 µM (inactive)
IC50 [1]: > 25 µM

COc1ccccc1N1CCN(C(=O)c2oc3cc(C)cc(C)c3c2C)CC1
IC50 (WT cells): 23.9 µM
IC50 [1]: > 25 µM

Cc1c(N(C(=O)Nc2ccccc2)C2=NCC(C)S2)c(=O)n(-c2ccccc2)n1C (stereo not drawn)
IC50 (WT cells): > 25 µM (inactive)
IC50 [1]: > 25 µM

Cc1ccc(C(=O)NCc2ccc(N3CCN(C(=O)OC(C)(C)C)CC3)cc2)cc1
IC50 (WT cells): > 25 µM (inactive)
IC50 [1]: > 25 µM

CC(C)(C)[C@H]1C=C(C(=O)N2CCN(Cc3ccccc3)CC2)O[C@@H](OCc2ccc(CO)cc2)C1
IC50 (WT cells): 21.7 µM
IC50 [1]: > 25 µM

CC(C)(C)[C@H]1C=C(C(=O)N2CCN(Cc3ccc4c(c3)OCO4)CC2)O[C@@H](OCc2ccc(CO)cc2)C1
IC50 (WT cells): 10 µM
IC50 [1]: > 25 µM

N#CC1=C(N)SC(N)=C(C#N)C1c1c(Cl)cccc1Cl
IC50 (WT cells): > 25 µM (inactive)
IC50 [1]: > 25 µM

S=C(Nc1ccc(Oc2ccccc2)cc1)NC1CCCCCC1
IC50 (WT cells): 5.19 µM
IC50 [1]: 10 µM

Cc1[nH][nH]c(=O)c1C(c1c(C)[nH][nH]c1=O)c1cn(Cc2ccccc2Cl)c2ccccc12
IC50 (WT cells): > 25 µM (inactive)
IC50 [1]: > 25 µM

O=C(N/N=C/C=C/c1ccccc1)C1CC1c1ccccc1 (stereo not drawn)
IC50 (WT cells): > 25 µM (inactive)
IC50 [1]: > 25 µM

CCCOc1ccc(Cc2c(Cl)nc(SC)nc2N(C)C)cc1
IC50 (WT cells): 9.94 µM
IC50 [1]: > 25 µM

NC(=S)N/N=C/c1ccccc1OCCSc1ccc(Cl)cc1
IC50 (WT cells): 6.86 µM
IC50 [1]: 12 µM

Cc1cccc2sc(NC(=O)c3ccc(NS(=O)(=O)c4cccs4)cc3)nc12
IC50 (WT cells): > 25 µM (inactive)
IC50 [1]: > 25 µM

CCCCc1ccc(NC(=S)Nc2ccc(Cl)c(S(=O)(=O)N(C)C)c2)cc1
IC50 (WT cells): 9.48 µM
IC50 [1]: > 25 µM

CCCc1c(C)[nH]c2ccc(NC(C)=O)cc2c1=O
IC50 (WT cells): > 25 µM (inactive)
IC50 [1]: > 25 µM

Nc1ccc2nc(CN3CCOCC3)[nH]c2c1
IC50 (WT cells): > 25 µM (inactive)
IC50 [1]: > 25 µM

NC(=O)COC(=O)c1ccc(Cl)c(S(=O)(=O)N(Cc2ccccc2)c2ccc(Cl)cc2)c1
IC50 (WT cells): 18.1 µM
IC50 [1]: > 25 µM

COc1ccc(N/C(N)=N/c2nc(CSc3ccc(C)cc3)cc(=O)[nH]2)cc1
IC50 (WT cells): > 25 µM (inactive)
IC50 [1]: > 25 µM

CCOC(=O)c1oc2cccc(OCC(O)CNC(C)C)c2c1C (stereo not drawn)
IC50 (WT cells): > 25 µM (inactive)
IC50 [1]: > 25 µM

O=C(Nc1cc(S(=O)(=O)N2CCCCC2)ccc1Cl)c1ccccc1NS(=O)(=O)c1ccc(F)cc1
IC50 (WT cells): 23.4 µM
IC50 [1]: > 25 µM

COc1ccccc1C1(CCNS(=O)(=O)c2ccc(C)cc2)CCOC(C(C)C)C1 (stereo not drawn)
IC50 (WT cells): 21 µM
IC50 [1]: > 25 µM
